pIC50: −log10 of the molar value. Like-named read-outs stand apart in the source and are kept apart here.
Legend:
[1] = biological target: EGFR del19/T790M/C797S (Homo sapiens, UniProt P00533, C797S/DEL746-750/T790M); assay: Biochemical EGFR kinase assay (Lance Ultra TR-FRET), triple mutant del19/T790M/C797S
Summary of the method: (§1)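 Kinase activity is measured by TR-FRET phosphopeptide detection. Compounds span 0.003 μM to 10 μM; the 1 h reaction at room temperature is quenched with EDTA, then labelled antibody (2 nM) is incubated 60 min before reading.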

[2] = biological target: EGFR L858R/T790M/C797S (Homo sapiens, UniProt P00533, C797S/L858R/T790M); assay: Biochemical EGFR kinase assay (Lance Ultra TR-FRET), triple mutant L858R/T790M/C797S
EGFR L858R/T790M/C797S, sequence (P00533 25-1210 T790M/C797S/L858R): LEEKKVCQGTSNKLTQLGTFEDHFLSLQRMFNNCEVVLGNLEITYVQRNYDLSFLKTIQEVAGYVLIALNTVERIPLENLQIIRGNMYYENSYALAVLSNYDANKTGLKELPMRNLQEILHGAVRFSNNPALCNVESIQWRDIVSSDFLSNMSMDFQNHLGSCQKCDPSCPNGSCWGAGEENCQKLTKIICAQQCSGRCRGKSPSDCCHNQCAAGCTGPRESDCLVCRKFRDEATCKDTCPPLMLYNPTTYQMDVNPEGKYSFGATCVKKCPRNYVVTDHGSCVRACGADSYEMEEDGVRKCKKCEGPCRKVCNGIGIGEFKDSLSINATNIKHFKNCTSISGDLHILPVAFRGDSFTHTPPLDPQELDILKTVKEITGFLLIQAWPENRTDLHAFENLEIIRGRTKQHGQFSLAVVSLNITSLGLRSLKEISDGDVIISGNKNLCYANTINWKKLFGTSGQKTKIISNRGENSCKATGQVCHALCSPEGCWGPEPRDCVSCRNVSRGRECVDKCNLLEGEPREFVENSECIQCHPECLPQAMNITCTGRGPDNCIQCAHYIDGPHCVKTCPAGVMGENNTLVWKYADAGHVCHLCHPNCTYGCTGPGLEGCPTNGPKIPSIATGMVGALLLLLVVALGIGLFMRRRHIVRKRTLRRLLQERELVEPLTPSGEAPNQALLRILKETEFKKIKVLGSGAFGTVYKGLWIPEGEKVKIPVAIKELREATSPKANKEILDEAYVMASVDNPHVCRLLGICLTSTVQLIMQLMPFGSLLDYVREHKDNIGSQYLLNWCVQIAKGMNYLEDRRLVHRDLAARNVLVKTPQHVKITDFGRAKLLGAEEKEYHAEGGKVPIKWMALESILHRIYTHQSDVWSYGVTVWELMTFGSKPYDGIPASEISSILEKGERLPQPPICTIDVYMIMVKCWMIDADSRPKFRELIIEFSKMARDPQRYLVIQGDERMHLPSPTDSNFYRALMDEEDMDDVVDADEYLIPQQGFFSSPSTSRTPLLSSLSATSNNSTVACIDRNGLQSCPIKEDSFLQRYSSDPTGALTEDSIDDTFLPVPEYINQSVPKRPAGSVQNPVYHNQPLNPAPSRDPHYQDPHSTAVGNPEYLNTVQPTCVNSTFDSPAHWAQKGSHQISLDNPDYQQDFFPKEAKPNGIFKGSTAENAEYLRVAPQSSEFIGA
Summary of the method: as §1

[3] = biological target: EGFR del19/C797S (Homo sapiens, UniProt P00533, C797S/DEL746-750); assay: Biochemical EGFR kinase assay (Lance Ultra TR-FRET), double mutant del19/C797S
EGFR del19/C797S, sequence (P00533 with tags, fused parts or gaps DEL746-750/C797S): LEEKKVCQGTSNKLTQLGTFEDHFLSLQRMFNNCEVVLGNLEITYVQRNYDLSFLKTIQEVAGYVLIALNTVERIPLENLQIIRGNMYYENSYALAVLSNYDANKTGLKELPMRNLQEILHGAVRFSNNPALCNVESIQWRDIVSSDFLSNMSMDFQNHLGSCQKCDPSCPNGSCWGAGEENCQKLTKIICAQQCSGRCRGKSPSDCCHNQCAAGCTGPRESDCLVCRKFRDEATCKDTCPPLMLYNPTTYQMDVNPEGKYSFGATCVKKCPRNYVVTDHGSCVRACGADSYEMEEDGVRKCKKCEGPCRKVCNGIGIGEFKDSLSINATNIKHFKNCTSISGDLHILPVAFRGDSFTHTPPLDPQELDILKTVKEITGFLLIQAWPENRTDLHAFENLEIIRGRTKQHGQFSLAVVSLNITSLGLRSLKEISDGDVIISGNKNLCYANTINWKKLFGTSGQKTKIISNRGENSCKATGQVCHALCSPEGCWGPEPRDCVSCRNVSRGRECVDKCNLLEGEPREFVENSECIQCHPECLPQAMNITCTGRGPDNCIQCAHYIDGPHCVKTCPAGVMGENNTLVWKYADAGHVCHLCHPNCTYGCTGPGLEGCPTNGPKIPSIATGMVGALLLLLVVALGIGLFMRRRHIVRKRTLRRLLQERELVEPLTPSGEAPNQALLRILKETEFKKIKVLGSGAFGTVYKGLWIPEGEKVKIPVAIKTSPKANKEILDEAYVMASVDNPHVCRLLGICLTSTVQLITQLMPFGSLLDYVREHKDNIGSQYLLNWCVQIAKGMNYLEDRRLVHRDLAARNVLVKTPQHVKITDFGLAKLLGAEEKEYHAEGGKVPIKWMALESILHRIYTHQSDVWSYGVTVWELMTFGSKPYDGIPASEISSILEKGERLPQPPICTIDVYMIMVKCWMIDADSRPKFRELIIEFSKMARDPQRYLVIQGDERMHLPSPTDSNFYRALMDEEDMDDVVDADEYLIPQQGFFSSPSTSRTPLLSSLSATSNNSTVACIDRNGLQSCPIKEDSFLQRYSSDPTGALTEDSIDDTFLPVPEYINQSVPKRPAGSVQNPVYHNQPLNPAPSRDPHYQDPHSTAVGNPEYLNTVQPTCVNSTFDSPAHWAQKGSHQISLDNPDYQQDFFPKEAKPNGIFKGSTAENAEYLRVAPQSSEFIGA
Summary of the method: as §1

[4] = biological target: EGFR L858R/C797S (Homo sapiens, UniProt P00533, C797S/L858R); assay: Biochemical EGFR kinase assay (Lance Ultra TR-FRET), double mutant L858R/C797S
EGFR L858R/C797S, sequence (P00533 25-1210 C797S/L858R): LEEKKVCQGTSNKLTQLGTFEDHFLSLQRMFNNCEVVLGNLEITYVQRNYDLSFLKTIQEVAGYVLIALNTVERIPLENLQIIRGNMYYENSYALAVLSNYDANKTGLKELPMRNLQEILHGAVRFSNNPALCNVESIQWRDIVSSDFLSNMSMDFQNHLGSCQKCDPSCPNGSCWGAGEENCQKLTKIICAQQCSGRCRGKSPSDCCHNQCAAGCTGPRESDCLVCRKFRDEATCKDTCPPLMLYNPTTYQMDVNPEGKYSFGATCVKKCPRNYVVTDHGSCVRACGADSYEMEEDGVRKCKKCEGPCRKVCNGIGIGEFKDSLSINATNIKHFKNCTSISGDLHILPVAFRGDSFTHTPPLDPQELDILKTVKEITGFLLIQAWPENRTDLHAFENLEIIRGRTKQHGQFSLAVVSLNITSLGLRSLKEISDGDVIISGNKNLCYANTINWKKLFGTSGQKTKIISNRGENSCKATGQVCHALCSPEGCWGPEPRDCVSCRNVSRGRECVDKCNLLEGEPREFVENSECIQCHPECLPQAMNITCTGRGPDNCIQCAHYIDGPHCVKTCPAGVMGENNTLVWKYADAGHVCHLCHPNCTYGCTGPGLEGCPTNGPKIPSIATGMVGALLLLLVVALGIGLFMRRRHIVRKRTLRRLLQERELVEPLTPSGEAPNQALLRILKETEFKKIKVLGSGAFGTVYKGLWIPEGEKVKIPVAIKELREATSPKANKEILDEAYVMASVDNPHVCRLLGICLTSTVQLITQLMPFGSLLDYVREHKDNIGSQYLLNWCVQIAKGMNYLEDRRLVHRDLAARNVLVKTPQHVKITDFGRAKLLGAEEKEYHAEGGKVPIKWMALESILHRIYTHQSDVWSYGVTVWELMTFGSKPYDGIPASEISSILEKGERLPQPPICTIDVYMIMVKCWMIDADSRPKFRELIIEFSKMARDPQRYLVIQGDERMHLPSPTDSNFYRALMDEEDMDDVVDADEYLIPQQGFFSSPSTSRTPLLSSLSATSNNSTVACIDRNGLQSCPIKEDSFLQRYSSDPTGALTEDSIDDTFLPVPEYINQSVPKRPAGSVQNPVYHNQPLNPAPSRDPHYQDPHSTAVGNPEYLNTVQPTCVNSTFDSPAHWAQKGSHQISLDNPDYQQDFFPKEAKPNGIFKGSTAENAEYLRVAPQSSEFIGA
Summary of the method: as §1

[5] = biological target: EGFR wildtype (Homo sapiens, UniProt P00533); assay: Biochemical EGFR kinase assay (Lance Ultra TR-FRET), wildtype
EGFR wildtype, sequence (P00533 25-1210): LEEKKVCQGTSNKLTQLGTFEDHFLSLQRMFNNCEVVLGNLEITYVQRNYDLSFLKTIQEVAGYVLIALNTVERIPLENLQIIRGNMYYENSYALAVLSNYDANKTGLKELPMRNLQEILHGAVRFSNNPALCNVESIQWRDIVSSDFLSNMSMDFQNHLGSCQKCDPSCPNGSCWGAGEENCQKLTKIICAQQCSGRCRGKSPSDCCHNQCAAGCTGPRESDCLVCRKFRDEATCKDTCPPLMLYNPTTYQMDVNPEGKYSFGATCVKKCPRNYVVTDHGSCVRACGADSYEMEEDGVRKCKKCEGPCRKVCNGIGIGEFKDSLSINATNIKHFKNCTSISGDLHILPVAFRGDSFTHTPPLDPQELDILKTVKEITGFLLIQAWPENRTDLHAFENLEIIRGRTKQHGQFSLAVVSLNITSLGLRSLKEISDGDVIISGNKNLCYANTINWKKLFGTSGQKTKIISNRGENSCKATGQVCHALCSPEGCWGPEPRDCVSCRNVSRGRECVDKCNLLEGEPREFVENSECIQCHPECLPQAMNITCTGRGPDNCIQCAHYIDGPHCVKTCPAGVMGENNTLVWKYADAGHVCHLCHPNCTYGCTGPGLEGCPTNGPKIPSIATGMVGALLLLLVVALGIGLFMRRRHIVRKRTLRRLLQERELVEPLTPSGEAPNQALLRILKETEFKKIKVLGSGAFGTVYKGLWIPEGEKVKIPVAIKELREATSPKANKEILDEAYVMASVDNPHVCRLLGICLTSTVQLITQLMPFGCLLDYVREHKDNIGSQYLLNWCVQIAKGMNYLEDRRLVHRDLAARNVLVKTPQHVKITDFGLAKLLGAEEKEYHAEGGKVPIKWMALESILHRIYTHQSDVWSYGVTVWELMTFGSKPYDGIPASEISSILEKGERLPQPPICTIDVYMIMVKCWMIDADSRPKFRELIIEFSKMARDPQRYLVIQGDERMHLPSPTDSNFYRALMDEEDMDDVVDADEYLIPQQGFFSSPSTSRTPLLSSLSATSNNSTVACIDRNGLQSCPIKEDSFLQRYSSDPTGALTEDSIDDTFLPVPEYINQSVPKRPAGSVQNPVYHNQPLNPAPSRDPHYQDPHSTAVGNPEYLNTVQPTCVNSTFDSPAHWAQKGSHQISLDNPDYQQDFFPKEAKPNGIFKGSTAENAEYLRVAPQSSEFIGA
Summary of the method: as §1

[6] = ATP at Km, read-out: IC50 del19/T790M/C797S, Km ATP
[7] = IC50 del19/T790M/C797S, 100 μM ATP
[8] = ATP at Km, read-out: IC50 L858R/T790M/C797S, Km ATP
[9] = IC50 L858R/T790M/C797S, 100 μM ATP
[10] = ATP at Km, read-out: IC50 del19/C797S, Km ATP
[11] = ATP at Km, read-out: IC50 L858R/C797S, Km ATP
[12] = ATP at Km, read-out: IC50 WT, Km ATP

pIC50 [1, 6]	pIC50 [1, 7]	pIC50 [2, 8]	pIC50 [2, 9]	pIC50 [3, 10]	pIC50 ([3]; IC50 del19/C797S, 100 μM ATP)	pIC50 [4, 11]	pIC50 ([4]; IC50 L858R/C797S, 100 μM ATP)	pIC50 [5, 12]	pIC50 ([5]; IC50 WT, 100 μM ATP)	SMILES
8.48	8.44	9.00	8.60	8.18	7.79	8.44	7.43	7.60	< 5.00	O=S(=O)(C1CC1)n1cc(-c2nccc(Nc3cc(N[C@H]4CC[C@@H](CO)CC4)c(-c4ccc(OC(F)(F)F)cn4)cn3)n2)cn1 [Example 195, ((1s,4s)-4-((6′-((2-(1-(Cyclopropylsulfonyl)-1H-pyrazol-4-yl)pyrimidin-4-yl)amino)-5-(trifluoromethoxy)-[2,3′-bipyridin]-4′-yl)amino)cyclohexyl)methanol]
–	7.83	–	8.02	–	6.87	–	< 5.00	–	< 5.00	CC(C)(O)[C@H]1CC[C@@H](Nc2cc(Nc3ccnc(-c4cnn(S(=O)(=O)C5CC5)c4)n3)ncc2-c2ccc(OC(F)(F)F)cn2)CC1 [Example 196, 2-((1s,4s)-4-((6′-((2-(1-(Cyclopropylsulfonyl)-1H-pyrazol-4-yl)pyrimidin-4-yl)amino)-5-(trifluoromethoxy)-[2,3′-bipyridin]-4′-yl)amino)cyclohexyl)propan-2-ol]
9.22	9.30	9.52	9.30	9.00	8.96	9.52	8.28	8.52	5.91	CN(C)C[C@H]1CC[C@@H](Nc2cc(Nc3ccnc(-c4cnn(S(=O)(=O)C5CC5)c4)n3)ncc2-c2ccc(OC(F)(F)F)cn2)CC1 [Example 197, N^6′-(2-(1-(Cyclopropylsulfonyl)-1H-pyrazol-4-yl)pyrimidin-4-yl)-N^4′-((1s,4s)-4-((dimethylamino)methyl)cyclohexyl)-5-(trifluoromethoxy)-[2,3′-bipyridine]-4′,6′-diamine]
9.30	9.10	9.70	9.40	9.15	8.54	9.10	8.54	8.43	< 5.00	CC1(O)CCC(Nc2cc(Nc3ccnc(-c4cnn(S(=O)(=O)C5CC5)c4)n3)ncc2-c2cc(S(C)(=O)=O)ccn2)CC1 (stereo not drawn) [Example 198, (1s,4s)-4-((6′-((2-(1-(Cyclopropylsulfonyl)-1H-pyrazol-4-yl)pyrimidin-4-yl)amino)-4-(methylsulfonyl)-[2,3′-bipyridin]-4′-yl)amino)-1-methylcyclohexan-1-ol]
9.40	9.15	10.00	9.52	10.00	9.52	10.40	9.40	9.52	6.86	CN1CCN(C(=O)c2ccc(-c3cnc(Nc4ccnc(-c5cnn(S(=O)(=O)C6CC6)c5)n4)cc3N[C@H]3CC[C@@](C)(O)CC3)nc2)CC1 [Example 199, (6′-((2-(1-(Cyclopropylsulfonyl)-1H-pyrazol-4-yl)pyrimidin-4-yl)amino)-4′-(((1s,4s)-4-hydroxy-4-methylcyclohexyl)amino)-[2,3′-bipyridin]-5-yl)(4-methylpiperazin-1-yl)methanone]
10.00	9.70	10.00	9.70	9.52	9.52	9.70	9.22	9.22	6.87	O=C(c1ccc(-c2cnc(Nc3ccnc(-c4cnn(S(=O)(=O)C5CC5)c4)n3)cc2N[C@H]2CC[C@@H](CO)CC2)nc1)N1CCOCC1 [Example 200, (6′-((2-(1-(Cyclopropylsulfonyl)-1H-pyrazol-4-yl)pyrimidin-4-yl)amino)-4′-(((1s,4s)-4-(hydroxymethyl)cyclohexyl)amino)-[2,3′-bipyridin]-5-yl)(morpholino)methanone]
9.52	9.40	10.00	9.40	9.30	9.22	9.30	8.74	8.66	5.98	CC(C)(O)[C@H]1CC[C@@H](Nc2cc(Nc3ccnc(-c4cnn(S(=O)(=O)C5CC5)c4)n3)ncc2-c2ccc(C(=O)N3CCOCC3)cn2)CC1 [Example 201, (6′-((2-(1-(Cyclopropylsulfonyl)-1H-pyrazol-4-yl)pyrimidin-4-yl)amino)-4′-(((1s,4s)-4-(2-hydroxypropan-2-yl)cyclohexyl)amino)-[2,3′-bipyridin]-5-yl)(morpholino)methanone]
9.70	9.52	10.00	10.00	10.00	9.70	10.52	9.52	9.70	7.03	CN1CCN(C(=O)c2ccc(-c3cnc(Nc4ccnc(-c5cnn(S(=O)(=O)C6CC6)c5)n4)cc3N[C@H]3CC[C@@H](CO)CC3)nc2)CC1 [Example 202, (6′-((2-(1-(Cyclopropylsulfonyl)-1H-pyrazol-4-yl)pyrimidin-4-yl)amino)-4′-(((1s,4s)-4-(hydroxymethyl)cyclohexyl)amino)-[2,3′-bipyridin]-5-yl)(4-methylpiperazin-1-yl)methanone]
9.40	9.15	9.70	9.52	10.00	9.52	10.00	9.10	9.52	6.40	CN1CCN(C(=O)c2ccc(-c3cnc(Nc4ccnc(-c5cnn(S(=O)(=O)C6CC6)c5)n4)cc3N[C@H]3CC[C@@H](C(C)(C)O)CC3)nc2)CC1 [Example 203, (6′-((2-(1-(Cyclopropylsulfonyl)-1H-pyrazol-4-yl)pyrimidin-4-yl)amino)-4′-(((1s,4s)-4-(2-hydroxypropan-2-yl)cyclohexyl)amino)-[2,3′-bipyridin]-5-yl)(4-methylpiperazin-1-yl)methanone]
10.00	10.00	10.00	10.00	9.70	9.70	10.00	9.00	9.40	6.91	CN1CCN(C(=O)c2ccc(-c3cnc(Nc4ccnc(-c5cnn(S(=O)(=O)C6CC6)c5)n4)cc3N[C@H]3CC[C@@H](CN(C)C)CC3)nc2)CC1 [Example 204, (6′-((2-(1-(Cyclopropylsulfonyl)-1H-pyrazol-4-yl)pyrimidin-4-yl)amino)-4′-(((1s,4s)-4-((dimethylamino)methyl)cyclohexyl)amino)-[2,3′-bipyridin]-5-yl)(4-methylpiperazin-1-yl)methanone]
9.52	9.15	9.70	9.70	9.15	9.22	9.40	8.46	8.70	5.84	C[C@]1(O)CC[C@@H](Nc2cc(Nc3ccnc(-c4cnn(S(=O)(=O)C5CC5)c4)n3)ncc2-c2ccc(OCCO)cn2)CC1 [Example 205, (1s,4s)-4-((6′-((2-(1-(Cyclopropylsulfonyl)-1H-pyrazol-4-yl)pyrimidin-4-yl)amino)-5-(2-hydroxyethoxy)-[2,3′-bipyridin]-4′-yl)amino)-1-methylcyclohexan-1-ol]
9.22	9.05	9.52	9.40	9.15	9.22	9.40	8.62	8.92	6.46	O=S(=O)(C1CC1)n1cc(-c2nccc(Nc3cc(N[C@H]4CC[C@@H](CO)CC4)c(-c4ccc(OCCO)cn4)cn3)n2)cn1 [Example 206, 2-((6′-((2-(1-(Cyclopropylsulfonyl)-1H-pyrazol-4-yl)pyrimidin-4-yl)amino)-4′-(((1s,4s)-4-(hydroxymethyl)cyclohexyl)amino)-[2,3′-bipyridin]-5-yl)oxy)ethan-1-ol]
10.00	9.70	10.00	9.70	9.70	9.52	10.00	9.22	9.52	6.62	CN(C)CCOc1ccc(-c2cnc(Nc3ccnc(-c4cnn(S(=O)(=O)C5CC5)c4)n3)cc2N[C@H]2CC[C@@](C)(O)CC2)nc1 [Example 208, (1s,4s)-4-((6′-((2-(1-(Cyclopropylsulfonyl)-1H-pyrazol-4-yl)pyrimidin-4-yl)amino)-5-(2-(dimethylamino)ethoxy)-[2,3′-bipyridin]-4′-yl)amino)-1-methylcyclohexan-1-ol]
10.00	9.70	10.00	9.70	10.00	9.52	10.00	9.22	9.70	7.00	CN(C)CCOc1ccc(-c2cnc(Nc3ccnc(-c4cnn(S(=O)(=O)C5CC5)c4)n3)cc2N[C@H]2CC[C@@H](CO)CC2)nc1 [Example 209, ((1s,4s)-4-((6′-((2-(1-(Cyclopropylsulfonyl)-1H-pyrazol-4-yl)pyrimidin-4-yl)amino)-5-(2-(dimethylamino)ethoxy)-[2,3′-bipyridin]-4′-yl)amino)cyclohexyl)methanol]
